Assay [1] relates to arterial segments of the rats. Briefly: Assay of tolerance (ex vivo vasodilatation of arterial segments after subcutaneous administration for three days). It is filed as in vivo. The following applies: for development of tolerance (in words): rats, 10 mg/Kg s.c. each eight hours for three days. Here is the method: The different compounds tested are subcutaneously administered to rats at a dose of 10 mg/Kg for three days, each eight hours, and the assay is then done ex vivo to test the capacity to vasodilate the arterial segments of the rats after the subcutaneous administration of the compound.
The method followed is substantially the same as described in following references: • De Garavilla, L., et al. Eur. J. Pharmacol. 1996; 313:89-96. • Keith, R. A., et al. J. Pharmacol. Exp. Ther. 1982; 221:525-531.
The different compounds are tested at 5 different concentrations, at a concentration range from 0.001 to 10 mM, using from 6 to 9 arterial rings for each compound. The obtained results are compared to those from the isosorbide 5-mononitrate, which is used as reference product, and with those obtained from the animals wherein there have not been administered any compound.

Assay [2] deals with arterial ring previously contracted with 1 μM of Norepinephrine. Kind of assay: Test of vasodilatation (arterial rings pre-contracted with norepinephrine). To be noted: for EC50: read-out: CE50 (concentration effective 50), vasodilatation of 50% of the arterial ring (average ± SD). Here is the method:
The method used in the assays is substantially the same as described in following references: • Furchgot, R. F. “Methods in nitric oxide research”. Feelisch & Stamler eds. John Wiley & Sons, Chichester, England, pp 567-581. • Trongvanichnam, K, et al. Jpn J. Pharmacol. 1996; 71:167-173. • Salas, E., et al. Eur. J. Pharmacol. 1994; 258:47-55.
The different compounds are tested at 5 different concentrations, at a concentration range from 0.001 to 10 mM, using from 6 to 9 arterial rings for each compound. The obtained results are compared to those from the isosorbide 5-mononitrate, which is used as reference product.
The results are shown in table 1 below and are provided as CE50 (concentration effective 50), which is the concentration of each of the tested compounds wherein there is produced a vasodilatation of 50% of the arterial ring previously contracted with 1 μM of Norepinephrine.

The mark [3] stands for this setting: arterial ring previously contracted with 1 μM Norepinephrine, 6 to 9 rings, 0.001 to 10 mM.

“Also recorded” adds a separate entry of the source. Structures can show the parent of a compound that is named as a salt. Where two headings read alike, the source gives them in different places.

Consider `CCSc1ncccc1C(=O)O[C@H]1CO[C@H]2[C@@H]1OC[C@H]2O[N+](=O)[O-]` [Compound 1, isosorbide 2-(2′-ethylthio)nicotinate 5-mononitrate hydrochloride], for which the EC50 in assay [1] (Rattus norvegicus, sc, 72 h, read-out: CE50, animals without any compound administrated during three days (Group A) (average ± SD)) turned out to be 130 ± 10 µM; in assay [2], 130 ± 10 µM. The EC50 at 10 mg/kg in assay [1] (Rattus norvegicus, sc, read-out: CE50, animals with compound administrated during three days (Group B) (average ± SD)) turned out to be 590 ± 100 µM. In addition, the “development of tolerance (in words)” value in assay [1] is given as “development of less tolerance as compared to the reference product”. Also, the “vasodilating activity compared with the reference product (in words)” value in assay [2] (reference: isosorbide 5-mononitrate) was “superior to that of the reference product”.
For the compound `CC(=O)S[C@H]1CO[C@H]2[C@@H]1OC[C@H]2O[N+](=O)[O-]` [Compound 5, 2-acetylmercaptoisosorbide 5-mononitrate], the EC50 in assay [1] (Rattus norvegicus, sc, 72 h, Group A: rats not given any compound, ex vivo arterial rings, read-out: CE50, animals without any compound administrated during three days (Group A) (average ± SD)) was 950 ± 100 µM; in assay [2] (setting [3]), 950 ± 100 µM. Further, the EC50 at 10 mg/kg in assay [1] (Rattus norvegicus, sc, Group B: rats given compound subcutaneously, 10 mg/Kg each eight hours for three days, ex vivo arterial rings, read-out: CE50, animals with compound administrated during three days (Group B) (average ± SD)) is 990 ± 100 µM. Further, the “development of tolerance (in words)” value in assay [1] (10 mg/kg) was “development of less tolerance as compared to the reference product; also recorded: practically null”.
On to `O=[N+]([O-])O[C@@H]1CO[C@H]2[C@@H]1OC[C@@H]2O` [isosorbide 5-mononitrate, reference compound], for which the EC50 in assay [1] (Group A: rats not given any compound, ex vivo arterial rings, read-out: CE50, animals without any compound administrated during three days (Group A) (average ± SD)) turned out to be 920 ± 200 µM; in assay [1] (Group B: rats given compound subcutaneously, 10 mg/Kg each eight hours for three days, ex vivo arterial rings, read-out: CE50, animals with compound administrated during three days (Group B) (average ± SD)) it was 6500 ± 1500 µM; in assay [2] (setting [3]) it was 920 ± 200 µM. In assay [1] (Group B versus Group A), the “CE50 in treated animals relative to CE50 in not treated animals (times)” value is “seven”. In addition, the “development of tolerance (in words)” value in assay [1] is on record as “strong developments of tolerance”.

The values are drawn from patent publication US6858632B2, “Derivatives of isosorbide mononitrate and its use as vasodilating agents with reduced tolerance” (Lacer, S.A., priority 1998, dated 2005).
